The assay has as its target T1, CYP11A1 (Homo sapiens, UniProt P05108).
T1 construct: recombinant WT human CYP11A1, pET-28a(+), C-terminal His6, coexpressed with GroEL/ES in E. coli, purified; MST
T1 sequence (P05108 40-521): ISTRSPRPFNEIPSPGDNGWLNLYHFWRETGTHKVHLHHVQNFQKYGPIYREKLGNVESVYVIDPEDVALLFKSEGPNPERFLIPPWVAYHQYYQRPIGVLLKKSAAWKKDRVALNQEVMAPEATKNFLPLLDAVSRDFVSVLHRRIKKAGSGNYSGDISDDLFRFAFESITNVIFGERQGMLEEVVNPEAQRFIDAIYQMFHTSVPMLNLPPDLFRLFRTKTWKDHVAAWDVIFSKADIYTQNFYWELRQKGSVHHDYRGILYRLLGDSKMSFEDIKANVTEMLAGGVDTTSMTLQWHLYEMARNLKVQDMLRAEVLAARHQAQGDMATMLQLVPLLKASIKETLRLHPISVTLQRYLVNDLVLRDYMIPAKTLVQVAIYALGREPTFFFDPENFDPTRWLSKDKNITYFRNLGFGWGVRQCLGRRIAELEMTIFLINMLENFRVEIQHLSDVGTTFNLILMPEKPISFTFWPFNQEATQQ
Kind of assay: MST with purified protein; in-gel competition with Tet probe; CO difference spectra; cell activity IC50 […]. The assay is classed as binding.

The structures appear in SMILES notation.

The compound `COc1ccc2cc1Oc1ccc(cc1)C[C@H]1c3cc(c(OC)cc3CCN1C)Oc1c(OC)c(OC)cc3c1[C@H](C2)N(C)CC3` [Tet, Tetrandrine] came in with a Kd of 12.5 µM.

One may read the Kd as the constant that tells how readily two partners part at equilibrium. A lower Kd goes with tighter binding.

(Values after article PMC11211567, “Tetrandrine inhibits aldosterone synthesis by covalently targeting CYP11A1 to attenuate hypertension” (Frontiers in Pharmacology, 2024).)
